In article PMC5220503, “Simultaneous Determination of Bergapten, Imperatorin, Notopterol, and Isoimperatorin in Rat Plasma by High Performance Liquid Chromatography with Fluorescence Detection and Its Application to Pharmacokinetic and Excretion Study after Oral Administration of Notopterygium incisum Extract” (International Journal of Analytical Chemistry, 2016):
Like-named read-outs stand apart in the source and are kept apart here.

Legend:
[1] = Pharmacokinetic study in rats after oral administration of N. incisum extract (HPLC-FLD of plasma); assay type: in vivo, Sprague–Dawley rats
Method: HPLC analysis was performed on an Agilent 1100 HPLC (Agilent Technologies, USA) equipped with a quaternary pump, a degasser, an autosampler, a column thermostat compartment, and a diode array detector (DAD). An Agilent fluorescence detector was coupled to the Agilent system. Separation was carried out with a Hedera ODS column (4.6 mm × 250 mm, 5 μm) by gradient elution at a temperature of 40°C. Excitation and emission of the fluorescence detector were set to 300 nm and 490 nm, respectively. The analysis involved a constant flow rate of 1.0 mL min^−1 and an injection volume of 30 μL. The mobile phase comprised of (A) aqueous formic acid (0.1%, v/v) and (B) acetonitrile after degassing through ultrasonication using a gradient elution of 15–30% B at 0 to 10 min, 30–42% B at 10 to 20 min, 42% B at 20 to 65 min, 42–80% B at 65–70 min, and 80–90% at 70–75 min. The reequilibration time of gradient elution was 10 min. Owing to the similarity in polarity of imperatorin and notopterol, it was essential to maintain 42% of acetonitrile for 45 min to ensure that the two compounds were well separated.
To a 100 μL aliquot of plasma sample, 10 μL IS solution was added. Samples were vortex-mixed for 2 min, extracted with 1000 μL ethyl acetate, and then centrifuged for 10 min at 18000 ×g. Supernatant was transferred into another centrifuge tube and evaporated to dryness using nitrogen gas. The dried residue was reconstituted by adding 100 μL methanol. The solution was shaken and ultrasonicated for 2 min. It was then centrifuged at 18000 ×g for 10 min. A 30 μL of the solution was run with the HPLC and analysis was performed.
The PK study was carried out in accordance with the guidelines for the care and use of laboratory animals and approved by the Animal Ethics Committee of Tianjin University of Traditional Chinese Medicine. Eight male Sprague–Dawley rats weighing 180–220 g were kept at the animal center of Tianjin University of Traditional Chinese Medicine (Tianjin, China) with controlled conditions (temperature at 25 ± 2°C and relative humidity of 55 ± 5%). They were allowed free access to food and water and acclimatized for 7 days until 12 h before the experiment. According to the clinical dose used in human for each day, the rats were administered an oral dose of 4.2 g kg^−1 N. incisum extract suspended in 0.5% carboxymethylcellulose sodium salt aqueous solution (CMC-Na) and an amount of blood sample (200 μL) was collected at time 0, 0.083, 0.167, 0.25, 0.5, 0.75, 1, 1.5, 2, 3, 4, 6, 8, 12, and 24 h into heparin-pretreated tubes from the fossa orbitalis of each rat after oral administration of the extract. Blood plasma was immediately obtained by centrifuging the collected blood at 3300 ×g for 10 min and storing at −20°C until analysis.
The DAS software (Drug and Statistics 1.0, Medical College of Wannan, China), a computer program, was used in calculating the pharmacokinetic parameters after administering N. incisum extract. Bergapten, imperatorin, and isoimperatorin where analyzed using a one-compartment analysis while notopterol was processed using a two-compartment analysis based on Akaike's information criterion (AIC) estimation.

[2] = Excretion study in rat urine, feces and bile after oral N. incisum extract; assay type: in vivo, Sprague–Dawley rats; conditions: 0–72 h, oral 4.2 g kg^−1 N. incisum extract; for cumulative excretion in feces: rat feces; for cumulative excretion in urine: rat urine
From the text: Sixteen male Sprague–Dawley (SD) rats (200 ± 20 g) were divided into two groups (group 1 were for collecting urine and fecal samples in metabolic cages while group 2 were for collecting bile samples from the bile duct using polyethylene tubes). For group 1, the rats were orally given N. incisum extract dissolved in 0.5% CMC-Na at a dosage of 4.2 g kg^−1 and placed in metabolic cages enabling collection of urine and fecal samples separately. The urine and fecal samples were collected at time intervals of 0–4, 4–8, 8–12, 12–24, 24–36, 36–48, 48–60, and 60–72 h. For group 2, the rats were anaesthetized with chloral hydrate at a dose of 0.3 g kg^−1 administered intraperitoneally. A polyethene tube was used in cannulating the bile duct ensuring continuous flow of bile. The rats were then administered the extract at a dose of 4.2 g kg^−1 and the bile samples were then collected at different time intervals (0-1, 1-2, 2-3, 3-4, 4-5, 5-6, 6-7, 7-8, and 8-9 h). After the volumes of urine and bile obtained were measured, these samples were stored at −20°C until analysis. The preparation of the urine and bile samples were the same as the plasma sample preparation described above. On the other hand, the fecal samples after collection were dried out in a drying oven at 40°C. After measuring the weights of the fecal samples, they were crushed by a mortar to achieve a uniform powder; 0.1 g of powdered feces was measured and 1 mL methanol was added in 1.5 mL polythene tubes, mixed sufficiently for 3 min, and extracted ultrasonically for 30 min. They were then centrifuged at 18000 ×g for 10 min. Supernatants were transferred into vials for analysis using HPLC-FLD.

[3] = Stability of analytes in rat plasma (QC samples); assay type: in vitro ADME; conditions: n = 6; for Stability, Autosampler for 24 h, Mean: extracted rat plasma, autosampler 24 h; for Stability, Freeze-thaw cycles, Mean / Stability, At −80°C for 1 month, Mean: rat plasma; for Stability, Freeze-thaw cycles, Mean: three freeze/thaw cycles
Method: Mixed quality control (QC) samples at high, medium, low, and LLOQ concentrations were made by spiking appropriate mixed standard solutions into blank rat plasma, giving plasma concentration ranges of 600, 60, 12, and 4 ng mL^−1 for bergapten, 6000, 600, 120, and 40 ng mL^−1 for imperatorin, 600, 60, 12, and 4 ng mL^−1 for notopterol, and 300, 30, 6, and 2 ng mL^−1 for isoimperatorin, respectively, followed by the same sample preparation and extraction method described above.
The recovery was determined by comparing the observed peak area in extracted plasma samples to those of postprocessed spiked samples. […]

[4] = male, Sprague-Dawley, rat, plasma, po, 4.2 g/kg, rat plasma, oral 4.2 g kg^−1 N. incisum extract, n = 8, mean ± SD, read-out: T 1/2 (converted)
[5] = male, Sprague-Dawley, rat plasma, oral 4.2 g kg^−1 N. incisum extract, n = 8, mean ± SD, read-out: AUC0–∞
[6] = male, Sprague-Dawley, rat plasma, oral 4.2 g kg^−1 N. incisum extract, n = 8, mean ± SD, read-out: C max
[7] = male, Sprague-Dawley, rat plasma, oral 4.2 g kg^−1 N. incisum extract, read-out: total drug exposure in rats in over 24 h, AUC0–24
[8] = rat plasma, oral 4.2 g kg^−1 N. incisum extract, n = 8, mean ± SD
[9] = male, Sprague-Dawley, rat, plasma, po, 4.2 g/kg, rat plasma, oral 4.2 g kg^−1 N. incisum extract, n = 8, mean ± SD, read-out: T max
[10] = high QC (600, 6000, 600, 300 ng mL^−1)
[11] = low QC (12, 120, 12, 6 ng mL^−1)
[12] = medium QC (60, 600, 60, 30 ng mL^−1)
[13] = male, Sprague-Dawley, rat, in vivo, po, 4.2 g/kg

half-life [1, 4] [min] | AUC(0-inf) [1, 5] [ng·h/mL] | Cmax [1, 6] [ng/mL] | AUC(0-t) [1, 7] [ng·h/mL] | T 1/2 [1, 8] [h] | T max [1, 8] [h] | cumulative excretion in feces [2] | cumulative excretion in urine [2] | Tmax [1, 9] [h] | SMILES | further results
≤ 360 | 296 ± 242 | 23.3 ± 6.87 | 102 ± 34.8 | 3.18 ± 3.44 | 0.45 ± 0.35 | 54.1083 + 4.4359% | 0.1171 + 0.0096% |  | CC(C)=CC(O)C/C(C)=C/COc1c2ccoc2cc2oc(=O)ccc12 (stereo not shown) [Notopterol, notopterol] | T max ([1]; rat plasma, oral 4.2 g kg^−1 N. incisum extract, n = 8, mean ± SD, listed as notopterol): below 2 h
≤ 360 | 2120 ± 2870 | 145 ± 75.9 | 830 ± 762 | 5.62 ± 4.06 | 1.59 ± 0.97 | 7.7284 + 2.2114% | 0.0084 + 0.0016% | < 2 | CC(C)=CCOc1c2ccoc2cc2oc(=O)ccc12 [Isoimperatorin, isoimperatorin] | 

Second part, the molecule before the results:

SMILES | half-life [1, 4] [min] | AUC(0-inf) [1, 5] [ng·h/mL] | Cmax [1, 6] [ng/mL] | AUC(0-t) [1, 7] [ng·h/mL] | T 1/2 [1, 8] [h] | T max [1, 8] [h] | cumulative excretion in feces [2] | cumulative excretion in urine [2] | Tmax [1, 9] [h] | further results
COc1ccc2ccc(=O)oc2c1CC=C(C)C [osthole, reference compound] |  |  |  |  |  |  |  |  |  | detection in rat plasma ([1]; after oral 4.2 g kg^−1 N. incisum extract): not detected
COc1c2ccoc2cc2oc(=O)ccc12 [Bergapten, bergapten] | 720 | 1960 ± 2490 | 184 ± 171 | 1640 ± 2490 | 12.8 ± 22.2 | 3.06 ± 3.71 | about 80% |  | ~3 | Stability, Autosampler for 24 h, Mean ([3]; LLOQ QC (4, 40, 4, 2 ng mL^−1)): 100%; Stability, Autosampler for 24 h, Mean [3, 10]: 88.9%; Stability, Autosampler for 24 h, Mean [3, 11]: 101%; Stability, Autosampler for 24 h, Mean [3, 12]: 115%; Stability, Freeze-thaw cycles, Mean ([3]; LLOQ QC (4, 40, 4, 2 ng mL^−1)): 106%; Stability, Freeze-thaw cycles, Mean [3, 10]: 85.1%; Stability, Freeze-thaw cycles, Mean [3, 11]: 91.1%; Stability, Freeze-thaw cycles, Mean [3, 12]: 83.6%; Stability, At −80°C for 1 month, Mean ([3]; LLOQ QC (4, 40, 4, 2 ng mL^−1)): 80.5%; Stability, At −80°C for 1 month, Mean [3, 10]: 112%; Stability, At −80°C for 1 month, Mean [3, 11]: 91.1%; Stability, At −80°C for 1 month, Mean [3, 12]: 104%
CC(C)=CCOc1c2occc2cc2ccc(=O)oc12 [Imperatorin, imperatorin] |  |  |  |  |  |  |  |  |  | AUC(0-inf) [1, 13]: 13900 ± 13900 ng·h/mL; AUC(0-t) [1, 13]: 11000 ± 12000 ng·h/mL; Cmax [1, 13]: 1670 ± 1500 ng/mL; T 1/2 [1, 13]: 4.99 ± 3.02 h; T max [1, 13]: 1.65 ± 1.80 h; half-life ([1]; male, Sprague-Dawley, rat, in vivo, po, 4.2 g/kg, T 1/2): ≤ 360 min; Tmax ([1]; male, Sprague-Dawley, rat, in vivo, po, 4.2 g/kg, T max): < 2 h
